Experimental data from ChEMBL document CHEMBL1149717, “Three New Eudesmane Sesquiterpenes from Pluchea arguta” (J Nat Prod, 1992).
Activity calls are given as the source filed them.

How the values were obtained:
Assay type in all cases: functional, organism-based
[1] = test system: Lactococcus lactis; assay: Antibacterial activity against Streptococcus lactis
[2] = test system: Klebsiella pneumoniae; assay: Antibacterial activity against Klebsiella ozaenae; settings: subsp. ozaenae
[3] = test system: Proteus vulgaris; assay: Antibacterial activity against Proteus vulgaris

Measured: Activity

CC(=O)O[C@]1(C)[C@@H]2C=C(C(C)(C)O)C(=O)C[C@@]2(C)CC[C@H]1OC(=O)C(C)(O)C(C)Cl (stereo partly drawn)
active: all assays above
